Patent US9296704B2, “Substituted pyrimidines as protein kinase inhibitors” (CELGENE AVILOMICS RESEARCH, INC., priority 2007, dated 2016)
pIC50: −log10 of the molar value.

What was measured:
BTK = BTK (Homo sapiens, UniProt Q06187); assay: Omnia assay for potency against BTK; format: biochemical; conditions: read-out: BTK Inhibition
From the text: (§1) The protocol below describes continuous-read kinase assays to measure inherent potency of compounds against active forms of EGFR (WT) and EGFR (T790M/L858R) enzymes. The mechanics of the assay platform are best described by the vendor (Invitrogen, Carlsbad, Calif.) on their website at the following URL: http://www.invitrogen.com/content.cfm?pageid=11338 or http://www.invitrogen.com/site/us/en/home/Products-and-Services/Applications/Drug-Discovery/Target-and-Lead-Identification-and-Validation/KinaseBiology/KB-Misc/Biochemical-Assays/Omnia-Kinase-Assays.html.
(§2) Briefly, 10× stocks of EGFR-WT (PV3872) from Invitrogen and EGFR-T790M/L858R (40350) from BPS Bioscience, San Diego, Calif., 1.13×ATP (AS001A) and appropriate Tyr-Sox conjugated peptide substrates (KCZI001) were prepared in 1× kinase reaction buffer consisting of 20 mM Tris, pH 7.5, 5 mM MgCl2, 1 mM EGTA, 5 mM β-glycerophosphate, 5% glycerol (10× stock, KB002A) and 0.2 mM DTT (DS001A). 5 μL of each enzyme were pre-incubated in a Corning (#3574) 384-well, white, non-binding surface microtiter plate (Corning, NY) for 30 min. at 27° C. with a 0.5 μL volume of 50% DMSO and serially diluted compounds prepared in 50% DMSO. Kinase reactions were started with the addition of 45 μL of the ATP/Tyr-Sox peptide substrate mix and monitored every 30-90 seconds for 60 minutes at λex360/λem485 in a Synergy^4 plate reader from BioTek (Winooski, Vt.). At the conclusion of each assay, progress curves from each well were examined for linear reaction kinetics and fit statistics (R^2, 95% confidence interval, absolute sum of squares). Initial velocity (0 minutes to ˜30 minutes) from each reaction was determined from the slope of a plot of relative fluorescence units vs time (minutes) and then plotted against inhibitor concentration to estimate IC50 from log [Inhibitor] vs Response, Variable Slope model in GraphPad Prism from GraphPad Software (San Diego, Calif.).
The Omnia Assay Protocol for potency assessment against BTK is performed in a substantially similar manner as that described in Example 25 above except that the modified BTK-optimized reagent conditions are: • [BTK]=5 nM, [ATP]=[…], [Y5-Sox]=[…] (ATP KMapp ˜[…]).

EGFR (T790M/L858R) = target: T1, EGFR (T790M/L858R) (Homo sapiens, UniProt P00533, L858R/T790M); assay: Omnia continuous-read kinase assay, EGFR (T790M/L858R); format: biochemical; conditions: read-out: EGFR (T790M/L858R) inhibiton
T1 construct: purchased BPS Bioscience 40350
T1 sequence (P00533 25-1210 T790M/L858R): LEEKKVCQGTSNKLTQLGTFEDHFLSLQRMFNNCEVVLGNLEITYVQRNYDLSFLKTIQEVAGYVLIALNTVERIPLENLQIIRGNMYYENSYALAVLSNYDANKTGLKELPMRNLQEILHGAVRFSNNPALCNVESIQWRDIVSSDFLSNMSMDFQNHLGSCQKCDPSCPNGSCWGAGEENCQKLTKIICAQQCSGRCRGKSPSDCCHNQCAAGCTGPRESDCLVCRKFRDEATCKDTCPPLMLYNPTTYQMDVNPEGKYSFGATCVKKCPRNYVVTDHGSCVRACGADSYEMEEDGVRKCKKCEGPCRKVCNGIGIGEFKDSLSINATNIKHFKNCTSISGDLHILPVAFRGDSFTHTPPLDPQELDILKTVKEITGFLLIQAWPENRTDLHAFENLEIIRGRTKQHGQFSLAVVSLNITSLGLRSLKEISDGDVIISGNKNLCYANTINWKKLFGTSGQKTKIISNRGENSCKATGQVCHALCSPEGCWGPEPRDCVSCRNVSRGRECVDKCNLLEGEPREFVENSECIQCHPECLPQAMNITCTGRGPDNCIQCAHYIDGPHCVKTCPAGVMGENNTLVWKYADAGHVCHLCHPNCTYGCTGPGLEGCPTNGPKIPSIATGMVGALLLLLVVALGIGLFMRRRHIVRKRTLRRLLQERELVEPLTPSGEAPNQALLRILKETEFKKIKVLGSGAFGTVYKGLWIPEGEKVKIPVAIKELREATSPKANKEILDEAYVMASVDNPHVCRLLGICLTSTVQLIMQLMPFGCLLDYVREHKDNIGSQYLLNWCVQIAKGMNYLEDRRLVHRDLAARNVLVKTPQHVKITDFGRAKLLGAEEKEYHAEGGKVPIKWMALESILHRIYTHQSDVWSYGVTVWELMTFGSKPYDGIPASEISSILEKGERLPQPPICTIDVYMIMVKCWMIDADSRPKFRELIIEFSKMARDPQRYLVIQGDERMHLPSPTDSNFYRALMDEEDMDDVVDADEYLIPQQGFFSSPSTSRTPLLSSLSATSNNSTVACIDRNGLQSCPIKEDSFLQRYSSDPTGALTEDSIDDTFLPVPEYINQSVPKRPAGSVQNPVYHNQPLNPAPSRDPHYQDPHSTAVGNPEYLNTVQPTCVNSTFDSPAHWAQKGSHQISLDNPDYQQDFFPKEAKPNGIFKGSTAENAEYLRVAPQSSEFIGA
From the text: as §1, §2
(§3) The EGFR-WT- and EGFR T790M/L858R-modified optimized reagent conditions are: • [EGFR-WT]=5 nM, [ATP]=[…], [Y12-Sox]=[…]; and [EGFR-T790M/L858R]=3 nM, [ATP]=[…], [Y12-Sox]=[…].

EGFR (WT) = target: T2, EGFR (WT) (Homo sapiens, UniProt P00533); assay: Omnia continuous-read kinase assay, EGFR (WT); format: biochemical; conditions: read-out: EGFR inhibtion
T2 construct: purchased Invitrogen PV3872
T2 sequence (P00533 25-1210): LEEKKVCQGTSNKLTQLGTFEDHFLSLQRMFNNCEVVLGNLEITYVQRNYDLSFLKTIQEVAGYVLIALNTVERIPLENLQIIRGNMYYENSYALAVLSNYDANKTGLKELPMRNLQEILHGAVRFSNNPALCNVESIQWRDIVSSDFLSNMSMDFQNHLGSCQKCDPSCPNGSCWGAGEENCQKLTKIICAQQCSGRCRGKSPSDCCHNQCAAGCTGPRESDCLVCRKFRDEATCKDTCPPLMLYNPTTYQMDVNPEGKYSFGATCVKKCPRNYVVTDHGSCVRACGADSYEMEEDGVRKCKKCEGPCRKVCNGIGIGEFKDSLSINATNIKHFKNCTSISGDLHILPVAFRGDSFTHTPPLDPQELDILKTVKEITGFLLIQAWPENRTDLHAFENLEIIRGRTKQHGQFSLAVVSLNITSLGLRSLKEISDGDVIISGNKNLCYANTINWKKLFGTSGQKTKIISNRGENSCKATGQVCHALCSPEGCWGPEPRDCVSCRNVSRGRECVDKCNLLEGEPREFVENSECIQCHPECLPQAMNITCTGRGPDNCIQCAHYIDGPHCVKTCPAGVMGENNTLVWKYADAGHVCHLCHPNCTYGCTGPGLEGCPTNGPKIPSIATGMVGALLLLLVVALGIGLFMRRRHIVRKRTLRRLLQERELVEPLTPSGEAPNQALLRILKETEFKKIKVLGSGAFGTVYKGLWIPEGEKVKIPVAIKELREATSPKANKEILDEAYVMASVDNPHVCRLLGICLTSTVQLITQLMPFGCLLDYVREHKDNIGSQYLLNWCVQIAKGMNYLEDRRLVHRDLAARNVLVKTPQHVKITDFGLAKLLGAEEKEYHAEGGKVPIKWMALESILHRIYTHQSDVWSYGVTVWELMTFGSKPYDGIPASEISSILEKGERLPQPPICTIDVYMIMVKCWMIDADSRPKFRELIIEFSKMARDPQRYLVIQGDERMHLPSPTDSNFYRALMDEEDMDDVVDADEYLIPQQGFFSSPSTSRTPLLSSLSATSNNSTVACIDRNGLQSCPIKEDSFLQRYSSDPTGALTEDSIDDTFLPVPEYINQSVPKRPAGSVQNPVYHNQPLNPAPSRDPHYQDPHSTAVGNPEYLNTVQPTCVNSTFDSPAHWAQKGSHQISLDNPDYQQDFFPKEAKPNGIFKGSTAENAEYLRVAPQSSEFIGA
From the text: as §1, §2, §3

JAK3 = target: T3, JAK3 (Homo sapiens, UniProt P52333); assay: Omnia assay for potency against JAK3; format: biochemical; conditions: read-out: JAK3 Inhibition
T3 sequence (P52333 1-1124): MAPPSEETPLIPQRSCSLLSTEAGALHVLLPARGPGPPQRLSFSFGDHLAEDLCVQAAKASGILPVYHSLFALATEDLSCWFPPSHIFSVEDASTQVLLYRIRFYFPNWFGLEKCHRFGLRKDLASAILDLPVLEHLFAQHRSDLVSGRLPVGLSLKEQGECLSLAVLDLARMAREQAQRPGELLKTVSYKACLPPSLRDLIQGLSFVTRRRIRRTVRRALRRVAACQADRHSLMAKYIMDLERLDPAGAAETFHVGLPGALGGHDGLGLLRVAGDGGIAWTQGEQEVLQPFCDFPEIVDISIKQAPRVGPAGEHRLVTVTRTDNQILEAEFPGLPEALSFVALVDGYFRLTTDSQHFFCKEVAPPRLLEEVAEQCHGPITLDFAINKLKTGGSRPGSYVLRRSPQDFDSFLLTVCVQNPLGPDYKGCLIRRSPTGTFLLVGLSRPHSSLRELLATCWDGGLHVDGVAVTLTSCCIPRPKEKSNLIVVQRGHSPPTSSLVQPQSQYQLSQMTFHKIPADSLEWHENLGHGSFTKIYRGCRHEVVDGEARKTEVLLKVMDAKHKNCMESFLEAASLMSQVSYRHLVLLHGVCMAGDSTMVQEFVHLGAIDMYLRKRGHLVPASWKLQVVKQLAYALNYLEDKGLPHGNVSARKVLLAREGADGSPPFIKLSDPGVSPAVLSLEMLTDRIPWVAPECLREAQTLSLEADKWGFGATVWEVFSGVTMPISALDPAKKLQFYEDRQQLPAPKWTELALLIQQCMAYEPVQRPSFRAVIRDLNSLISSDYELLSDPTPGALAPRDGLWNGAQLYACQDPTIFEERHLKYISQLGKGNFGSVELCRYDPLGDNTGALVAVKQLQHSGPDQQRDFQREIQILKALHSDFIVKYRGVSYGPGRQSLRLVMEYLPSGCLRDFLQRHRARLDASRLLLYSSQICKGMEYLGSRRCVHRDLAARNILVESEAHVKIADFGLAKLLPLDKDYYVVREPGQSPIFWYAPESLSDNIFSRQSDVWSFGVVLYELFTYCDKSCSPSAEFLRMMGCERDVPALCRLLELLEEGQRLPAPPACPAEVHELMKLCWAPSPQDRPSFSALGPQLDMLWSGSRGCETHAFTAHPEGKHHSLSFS
From the text: as §1, §2
The Omnia Assay Protocol for potency assessment against JAK3 is performed in a substantially similar manner as that described in Example 25 above except that the modified JAK3-optimized reagent conditions are: • [JAK3]=5 nM, [ATP]=5 μM, [Y12-Sox]=5 μM (ATP KMapp ˜[…]).

ErbB1 = ErbB1 (Homo sapiens, UniProt P00533); assay: Z'-LYTE biochemical assay, ErbB1 kinase inhibition; conditions: @ 1 μM
Sequence of ErbB1 (P00533 25-1210): as the sequence (P00533 25-1210) above
Experimental: Compounds of the present invention were assayed as inhibitors of one or more of ErbB1, ErbB2, and/or ErbB4 in a manner substantially similar to the method described by Invitrogen Corp (Invitrogen Corporation, 1600 Faraday Avenue, Carlsbad, Calif., CA; http://www.invitrogen.com/downloads/Z-LYTE_Brochure—1205.pdf) using the Z′-LYTE™ biochemical assay procedure or similar biochemical assay. The Z′-LYTE™ biochemical assay employs a fluorescence-based, coupled-enzyme format and is based on the differential sensitivity of phosphorylated and non-phosphorylated peptides to proteolytic cleavage.

Sequence of BTK (Q06187 whole entry): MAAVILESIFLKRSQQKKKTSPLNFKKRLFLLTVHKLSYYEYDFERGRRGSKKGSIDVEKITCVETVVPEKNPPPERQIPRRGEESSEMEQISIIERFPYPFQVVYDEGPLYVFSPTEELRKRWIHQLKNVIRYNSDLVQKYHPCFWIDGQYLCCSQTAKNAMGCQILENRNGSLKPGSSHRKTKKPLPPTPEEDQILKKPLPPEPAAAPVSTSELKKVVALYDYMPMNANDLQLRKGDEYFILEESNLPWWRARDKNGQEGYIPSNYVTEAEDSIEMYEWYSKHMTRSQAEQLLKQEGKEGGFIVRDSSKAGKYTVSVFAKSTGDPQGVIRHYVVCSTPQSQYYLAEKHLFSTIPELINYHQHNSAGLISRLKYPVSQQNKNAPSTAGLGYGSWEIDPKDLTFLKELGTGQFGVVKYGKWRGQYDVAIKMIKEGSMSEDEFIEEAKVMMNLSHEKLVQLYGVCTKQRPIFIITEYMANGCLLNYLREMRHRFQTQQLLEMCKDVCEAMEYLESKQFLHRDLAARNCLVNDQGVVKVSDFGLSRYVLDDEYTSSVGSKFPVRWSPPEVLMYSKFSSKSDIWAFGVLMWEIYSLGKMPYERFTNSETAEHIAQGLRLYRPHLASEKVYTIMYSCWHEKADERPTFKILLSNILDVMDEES

| SMILES | pIC50 (BTK) | pIC50 (EGFR (T790M/L858R)) | pIC50 (EGFR (WT)) | pIC50 (JAK3) | inhibition at 1 µM (ErbB1) |
| --- | --- | --- | --- | --- | --- |
| O=C(CCl)Nc1cccc(Nc2cc(Nc3ccc(F)c(Cl)c3)ncn2)c1 [I-49, 2-chloro-N-{3-[6-(3-chloro-4-fluorophenylamino)-pyrimidin-4-ylamino]-phenyl}-acetamide] | ≥ 8.00 | ≥ 8.00 | ≥ 8.00 | ≥ 8.00 |  |
| C=CC(=O)N(C)c1cccc(Nc2cc(Nc3ccc(F)c(Cl)c3)ncn2)c1 [I-53, N-3-[6-(3-chloro-4-fluorophenylamino)pyrimidin-4-yl]aminophenyl-N-methyl-2-propenamide] | 7.00 to 8.00 | 6.00 to 7.00 | 7.00 to 8.00 | 6.00 to 7.00 |  |
| CN(C)C/C=C/C(=O)N(C)c1cccc(Nc2cc(Nc3ccc(F)c(Cl)c3)ncn2)c1 [I-48] | 7.00 to 8.00 | 6.00 to 7.00 | 6.00 to 7.00 | ≤ 5.00 |  |
| O=C(/C=C/CN1CCCC1)Nc1cccc(Nc2cc(Nc3ccc(F)c(Cl)c3)ncn2)c1 [I-56] | 7.00 to 8.00 | ≥ 8.00 | ≥ 8.00 | 7.00 to 8.00 |  |
| C#Cc1cccc(Nc2cc(Nc3cccc(C#C)c3)ncn2)c1 [I-11, N^4,N^6-bis(3-ethynylphenyl)pyrimidine-4,6-diamine] | ≤ 5.00 | ≤ 5.00 | 7.00 to 8.00 | ≤ 5.00 | 79% |
| C=CC(=O)Nc1cccc(Nc2cc(Nc3ccc(Br)cc3F)ncn2)c1 [I-55] | 7.00 to 8.00 | ≥ 8.00 | ≥ 8.00 | 7.00 to 8.00 |  |
| C#CCN(C)C/C=C/C(=O)Nc1cccc(Nc2cc(Nc3cccc(C)c3)ncn2)c1 [I-58, (E)-N-3-(6-[3-methylphenyl]aminopyrimidin-4-yl)aminophenyl-4-(methyl-prop-2-ynyl)amino-2-butenamide] | 5.00 to 6.00 | 6.00 to 7.00 |  | 6.00 to 7.00 |  |
| C=CC(=O)Nc1cccc(Nc2cc(Nc3ccccc3)ncn2)c1 [I-67, N-3-[6-(phenylamino)-pyrimidin-4-yl]aminophenylpropenamide] | 7.00 to 8.00 | ≥ 8.00 | ≥ 8.00 | ≥ 8.00 |  |
| Cc1ccc(NC(=O)/C=C/CN(C)C)cc1Nc1cc(Nc2ccc(F)c(Cl)c2)ncn1 [I-54, (E)-N-[3-(6-{3-Chloro-4-fluorophenyl}amino-pyrimidin-4-ylamino)-4-methylphenyl]-4-(dimethylamino)but-2-enamide] | 6.00 to 7.00 | ≥ 8.00 | ≥ 8.00 | 5.00 to 6.00 |  |
| Cc1cccc(Nc2cc(Nc3cccc(NC(=O)/C=C/CN4CCNCC4)c3)ncn2)c1 [I-57, (E)-N-3-(6-[3-methylphenyl]aminopyrimidin-4-yl)aminophenyl-4-piperazinyl-2-butenamide] | 5.00 to 6.00 | 6.00 to 7.00 |  | ≤ 5.00 |  |
| O=C(Nc1cccc(Nc2cc(Nc3ccc(F)c(Cl)c3)ncn2)c1)C1(C(F)(F)F)CC1 [I-51, N-[3-(6-{3-chloro-4-fluorophenyl}aminopyrimidin-4-yl)aminophenyl]-1-trifluoromethylcyclopropanecarboxamide] | ≤ 5.00 | 5.00 to 6.00 | ≥ 8.00 | ≤ 5.00 |  |
| C#Cc1cccc(Nc2cc(Nc3cccc(Br)c3)ncn2)c1 [I-12, N^4-(3-Bromophenyl)-N^6-(3-ethynylphenyl)pyrimidine-4,6-diamine] | ≤ 5.00 | ≤ 5.00 | 7.00 to 8.00 | ≤ 5.00 | 82% |
| N#CC1(C(=O)Nc2cccc(Nc3cc(Nc4ccc(F)c(Cl)c4)ncn3)c2)CC1 [I-47, N-[3-(6-{3-chloro-4-fluorophenylamino}pyrimidin-4-yl)amino]phenyl-1-cyanocyclopropanecarboxamide] | ≤ 5.00 | ≤ 5.00 | ≥ 8.00 | ≤ 5.00 |  |
| CC(=O)N1CCN(C/C=C/C(=O)Nc2cccc(Nc3cc(Nc4cccc(C)c4)ncn3)c2)CC1 [I-60, (E)-N-3-(6-[3-methylphenylamino]-pyrimidin-4-yl)aminophenyl-4-(4-acetylpiperazin-1yl)-2-butenamide] | 5.00 to 6.00 | 6.00 to 7.00 | 5.00 to 6.00 | 5.00 to 6.00 |  |
| COc1ccc(NC(=O)/C=C/CN(C)C)cc1Nc1cc(Nc2ccc(F)c(Cl)c2)ncn1 [I-59] | 6.00 to 7.00 | ≥ 8.00 | ≥ 8.00 | 5.00 to 6.00 |  |
| [2H]C([2H])([2H])N(C/C=C/C(=O)Nc1cccc(Nc2cc(Nc3ccc(F)c(Cl)c3)ncn2)c1)C([2H])([2H])[2H] [I-61] | 7.00 to 8.00 | ≥ 8.00 |  | 7.00 to 8.00 |  |
| CN(C)C/C=C/C(=O)Nc1cccc(Nc2cc(Nc3ccc(OCc4cccc(F)c4)c(Cl)c3)ncn2)c1 [I-46] | 6.00 to 7.00 | ≥ 8.00 | ≥ 8.00 | 5.00 to 6.00 |  |
